Source: the NIST ThermoML archive (doi:10.1021/je5009679)

Conditions: Liquid; for viscosity: Concentric cylinders viscometry

CCn1cc[n+](C)c1.CO[PH](=O)[O-] [1-ethyl-3-methylimidazolium methyl phosphonate]
101.33 kPa
Conditions	viscosity [mPa·s]
293.15 K	156.4
303.15 K	89.9
313.15 K	56.11
323.15 K	37.41
333.15 K	26.3
343.15 K	19.32
353.15 K	14.71
363.15 K	11.54
373.15 K	9.289

Conditions	mass density [kg/m3]
293.15 K, 101.33 kPa, Vibrating tube method	1198.3
303.15 K, 101.33 kPa, Vibrating tube method	1191.7
311.2 K, 10000 kPa, Bellows volumetry	1189.6
311.2 K, 20000 kPa, Bellows volumetry	1193.3
311.2 K, 30000 kPa, Bellows volumetry	1197.1
311.2 K, 40000 kPa, Bellows volumetry	1200.8
311.2 K, 50000 kPa, Bellows volumetry	1204.4
311.2 K, 60000 kPa, Bellows volumetry	1207.8
311.2 K, 70000 kPa, Bellows volumetry	1211.3
311.2 K, 80000 kPa, Bellows volumetry	1214.6
311.2 K, 90000 kPa, Bellows volumetry	1217.9
311.2 K, 100000 kPa, Bellows volumetry	1221
311.2 K, 110000 kPa, Bellows volumetry	1224.2
311.2 K, 120000 kPa, Bellows volumetry	1227.2
311.2 K, 130000 kPa, Bellows volumetry	1230.3
311.2 K, 140000 kPa, Bellows volumetry	1233.1
311.2 K, 150000 kPa, Bellows volumetry	1236.1
311.2 K, 160000 kPa, Bellows volumetry	1238.9
311.2 K, 170000 kPa, Bellows volumetry	1241.7
311.2 K, 180000 kPa, Bellows volumetry	1244.5
311.2 K, 190000 kPa, Bellows volumetry	1247.2
311.2 K, 200000 kPa, Bellows volumetry	1249.9
313.15 K, 101.33 kPa, Vibrating tube method	1185.3
323.15 K, 101.33 kPa, Vibrating tube method	1178.8
330.9 K, 10000 kPa, Bellows volumetry	1176.8
330.9 K, 20000 kPa, Bellows volumetry	1180.9
330.9 K, 30000 kPa, Bellows volumetry	1184.9
330.9 K, 40000 kPa, Bellows volumetry	1188.8
330.9 K, 50000 kPa, Bellows volumetry	1192.5
330.9 K, 60000 kPa, Bellows volumetry	1196.1
330.9 K, 70000 kPa, Bellows volumetry	1199.8
330.9 K, 80000 kPa, Bellows volumetry	1203.3
330.9 K, 90000 kPa, Bellows volumetry	1206.6
330.9 K, 100000 kPa, Bellows volumetry	1210
330.9 K, 110000 kPa, Bellows volumetry	1213.3
330.9 K, 120000 kPa, Bellows volumetry	1216.4
330.9 K, 130000 kPa, Bellows volumetry	1219.5
330.9 K, 140000 kPa, Bellows volumetry	1222.5
330.9 K, 150000 kPa, Bellows volumetry	1225.4
330.9 K, 160000 kPa, Bellows volumetry	1228.3
330.9 K, 170000 kPa, Bellows volumetry	1231.2
330.9 K, 180000 kPa, Bellows volumetry	1234
330.9 K, 190000 kPa, Bellows volumetry	1236.7
330.9 K, 200000 kPa, Bellows volumetry	1239.6
333.15 K, 101.33 kPa, Vibrating tube method	1172.5
343.15 K, 101.33 kPa, Vibrating tube method	1166.1
351.3 K, 10000 kPa, Bellows volumetry	1164.2
351.3 K, 20000 kPa, Bellows volumetry	1168.7
351.3 K, 30000 kPa, Bellows volumetry	1172.8
351.3 K, 40000 kPa, Bellows volumetry	1176.9
351.3 K, 50000 kPa, Bellows volumetry	1180.9
351.3 K, 60000 kPa, Bellows volumetry	1184.7
351.3 K, 70000 kPa, Bellows volumetry	1188.4
351.3 K, 80000 kPa, Bellows volumetry	1192
351.3 K, 90000 kPa, Bellows volumetry	1195.5
351.3 K, 100000 kPa, Bellows volumetry	1198.9
351.3 K, 110000 kPa, Bellows volumetry	1202.1
351.3 K, 120000 kPa, Bellows volumetry	1205.4
351.3 K, 130000 kPa, Bellows volumetry	1208.7
351.3 K, 140000 kPa, Bellows volumetry	1211.8
351.3 K, 150000 kPa, Bellows volumetry	1214.8
351.3 K, 160000 kPa, Bellows volumetry	1217.8
351.3 K, 170000 kPa, Bellows volumetry	1220.8
351.3 K, 180000 kPa, Bellows volumetry	1223.7
351.3 K, 190000 kPa, Bellows volumetry	1226.6
351.3 K, 200000 kPa, Bellows volumetry	1229.5
353.15 K, 101.33 kPa, Vibrating tube method	1159.9
363.15 K, 101.33 kPa, Vibrating tube method	1153.8
371.3 K, 10000 kPa, Bellows volumetry	1152.1
371.3 K, 20000 kPa, Bellows volumetry	1156.2
371.3 K, 30000 kPa, Bellows volumetry	1161
371.3 K, 40000 kPa, Bellows volumetry	1165.2
371.3 K, 50000 kPa, Bellows volumetry	1169.2
371.3 K, 60000 kPa, Bellows volumetry	1173.3
371.3 K, 70000 kPa, Bellows volumetry	1177.2
371.3 K, 80000 kPa, Bellows volumetry	1180.9
371.3 K, 90000 kPa, Bellows volumetry	1184.5
371.3 K, 100000 kPa, Bellows volumetry	1188.2
371.3 K, 110000 kPa, Bellows volumetry	1191.6
371.3 K, 120000 kPa, Bellows volumetry	1195
371.3 K, 130000 kPa, Bellows volumetry	1198.3
371.3 K, 140000 kPa, Bellows volumetry	1201.6
371.3 K, 150000 kPa, Bellows volumetry	1204.7
371.3 K, 160000 kPa, Bellows volumetry	1207.9
371.3 K, 170000 kPa, Bellows volumetry	1210.9
371.3 K, 180000 kPa, Bellows volumetry	1213.9
371.3 K, 190000 kPa, Bellows volumetry	1216.8
371.3 K, 200000 kPa, Bellows volumetry	1219.8
373.15 K, 101.33 kPa, Vibrating tube method	1147.6
391.2 K, 10000 kPa, Bellows volumetry	1140.6
391.2 K, 20000 kPa, Bellows volumetry	1144.9
391.2 K, 30000 kPa, Bellows volumetry	1149.5
391.2 K, 40000 kPa, Bellows volumetry	1154
391.2 K, 50000 kPa, Bellows volumetry	1158.2
391.2 K, 60000 kPa, Bellows volumetry	1162.3
391.2 K, 70000 kPa, Bellows volumetry	1166.4
391.2 K, 80000 kPa, Bellows volumetry	1170.4
391.2 K, 90000 kPa, Bellows volumetry	1174.1
391.2 K, 100000 kPa, Bellows volumetry	1177.9
391.2 K, 110000 kPa, Bellows volumetry	1181.4
391.2 K, 120000 kPa, Bellows volumetry	1184.9
391.2 K, 130000 kPa, Bellows volumetry	1188.3
391.2 K, 140000 kPa, Bellows volumetry	1191.6
391.2 K, 150000 kPa, Bellows volumetry	1194.9
391.2 K, 160000 kPa, Bellows volumetry	1198.1
391.2 K, 170000 kPa, Bellows volumetry	1201.2
391.2 K, 180000 kPa, Bellows volumetry	1204.2
391.2 K, 190000 kPa, Bellows volumetry	1207.2
391.2 K, 200000 kPa, Bellows volumetry	1210.2
411.1 K, 10000 kPa, Bellows volumetry	1128.7
411.1 K, 20000 kPa, Bellows volumetry	1133.3
411.1 K, 30000 kPa, Bellows volumetry	1138.1
411.1 K, 40000 kPa, Bellows volumetry	1142.8
411.1 K, 50000 kPa, Bellows volumetry	1147.3
411.1 K, 60000 kPa, Bellows volumetry	1151.7
411.1 K, 70000 kPa, Bellows volumetry	1155.8
411.1 K, 80000 kPa, Bellows volumetry	1159.9
411.1 K, 90000 kPa, Bellows volumetry	1163.9
411.1 K, 100000 kPa, Bellows volumetry	1167.6
411.1 K, 110000 kPa, Bellows volumetry	1171.3
411.1 K, 120000 kPa, Bellows volumetry	1174.9
411.1 K, 130000 kPa, Bellows volumetry	1178.4
411.1 K, 140000 kPa, Bellows volumetry	1181.8
411.1 K, 150000 kPa, Bellows volumetry	1185.3
411.1 K, 160000 kPa, Bellows volumetry	1188.5
411.1 K, 170000 kPa, Bellows volumetry	1191.7
411.1 K, 180000 kPa, Bellows volumetry	1194.8
411.1 K, 190000 kPa, Bellows volumetry	1197.9
411.1 K, 200000 kPa, Bellows volumetry	1201
